{"source": "ChEMBL document CHEMBL4266002", "about": "“Acyloxybenzyl and Alkoxyalkyl Prodrugs of a Fosmidomycin Surrogate as Antimalarial and Antitubercular Agents” (ACS Med Chem Lett, 2018)", "key": {"[1]": {"tested_on": "Mycobacterium tuberculosis", "test": "Antimicrobial activity against Mycobacterium tuberculosis H37Ra ATCC 25177 after 7 days by luminometric method", "assay_type": "functional, organism-based", "conditions": "H37Ra ATCC 25177, 168 h"}, "[2]": {"test": "Selectivity index, ratio of IC50 for human MRC5 cells to IC50 for chloroquine-resistant Plasmodium falciparum K1 infected in human erythrocytes", "assay_type": "toxicity, cell-based", "conditions": "read-out: Ratio IC50"}, "[3]": {"tested_on": "Plasmodium falciparum", "test": "Antiplasmodial activity against chloroquine-resistant Plasmodium falciparum K1 infected in human erythrocytes measured after 72 hrs Malstat/NBT reagent based assay", "assay_type": "functional, organism-based", "conditions": "K1, 72 h"}, "[4]": {"test": "Stability in human serum at 1 mM after 30 to 60 mins by UPLC method", "assay_type": "ADME, cell-free", "conditions": "1000 µM"}, "[5]": {"test": "Selectivity index, ratio of IC50 for human MRC5 cells to IC50 for Mycobacterium tuberculosis H37Ra ATCC 25177", "assay_type": "toxicity", "conditions": "read-out: Ratio IC50"}, "[6]": {"tested_on": "MRC5", "test": "Cytotoxicity against human MRC5 cells after 24 hrs by resazurin assay", "assay_type": "cell-based", "conditions": "MRC5, 24 h"}, "[7]": {"test": "Oral bioavailability in patient with malaria", "assay_type": "ADME, organism-based", "conditions": "human, in vivo"}, "[8]": {"test": "Half life in patient with malaria", "assay_type": "ADME, organism-based", "conditions": "human, in vivo"}}}
{"smiles": "CC(=O)Oc1ccc(COP(=O)(CCCC(=O)N(C)O)OCc2ccc(OC(C)=O)cc2)cc1", "values": [{"measurement": "IC50", "setting": "[1]", "value": 19700, "unit": "nM"}, {"measurement": "selectivity ratio", "setting": "[2]", "value": 32}, {"measurement": "IC50", "setting": "[3]", "value": 490, "unit": "nM"}, {"measurement": "Stability", "setting": "[4]", "value": "Stable"}, {"measurement": "selectivity ratio", "setting": "[5]", "value": 0.8}, {"measurement": "IC50", "setting": "[6]", "value": 15500, "unit": "nM"}]}
{"smiles": "O=CN(O)CCCP(=O)([O-])O.[Na+]", "note": "[FOSMIDOMYCIN SODIUM]", "values": [{"measurement": "IC50", "setting": "[1]", "value": "> 64000", "unit": "nM"}, {"measurement": "bioavailability", "setting": "[7]", "value": 30, "unit": "%"}, {"measurement": "half-life", "setting": "[8]", "value": 2, "unit": "h"}, {"measurement": "IC50", "setting": "[6]", "value": "> 64000", "unit": "nM"}]}
{"smiles": "CN(O)C(=O)CCCP(=O)(OCc1ccc(OC(=O)C(C)(C)C)cc1)OCc1ccc(OC(=O)C(C)(C)C)cc1", "values": [{"measurement": "IC50", "setting": "[1]", "value": 430, "unit": "nM"}, {"measurement": "selectivity ratio", "setting": "[2]", "value": 6.1}, {"measurement": "IC50", "setting": "[3]", "value": 160, "unit": "nM"}, {"measurement": "Stability", "setting": "[4]", "value": "Stable"}, {"measurement": "selectivity ratio", "setting": "[5]", "value": 2.3}, {"measurement": "IC50", "setting": "[6]", "value": 980, "unit": "nM"}]}
{"smiles": "CCCCCCCCCCCCCCCCOCCCOP(=O)(CCCC(=O)N(C)O)OCCCOCCCCCCCCCCCCCCCC", "values": [{"measurement": "IC50", "setting": "[1]", "value": "> 64000", "unit": "nM"}, {"measurement": "selectivity ratio", "setting": "[2]", "value": "> 1.5"}, {"measurement": "IC50", "setting": "[3]", "value": 42000, "unit": "nM"}, {"measurement": "IC50", "setting": "[6]", "value": "> 64000", "unit": "nM"}]}
{"smiles": "CCCCOCCCOP(=O)(O)CCCC(=O)N(C)O", "values": [{"measurement": "IC50", "setting": "[1]", "value": "> 64000", "unit": "nM"}, {"measurement": "selectivity ratio", "setting": "[2]", "value": "> 4"}, {"measurement": "IC50", "setting": "[3]", "value": 16000, "unit": "nM"}, {"measurement": "IC50", "setting": "[6]", "value": "> 64000", "unit": "nM"}]}
{"smiles": "CCCCCCCCOCCCOP(=O)(O)CCCC(=O)N(C)O", "values": [{"measurement": "IC50", "setting": "[1]", "value": "> 64000", "unit": "nM"}, {"measurement": "selectivity ratio", "setting": "[2]", "value": "> 34"}, {"measurement": "IC50", "setting": "[3]", "value": 1900, "unit": "nM"}, {"measurement": "IC50", "setting": "[6]", "value": "> 64000", "unit": "nM"}]}
{"smiles": "CN(O)C(=O)CCCP(=O)(O)O", "values": [{"measurement": "IC50", "setting": "[1]", "value": "> 64000", "unit": "nM"}]}
{"smiles": "CC(C)C(=O)Oc1ccc(COP(=O)(CCCC(=O)N(C)O)OCc2ccc(OC(=O)C(C)C)cc2)cc1", "values": [{"measurement": "IC50", "setting": "[1]", "value": 640, "unit": "nM"}, {"measurement": "selectivity ratio", "setting": "[2]", "value": 7.3}, {"measurement": "IC50", "setting": "[3]", "value": 140, "unit": "nM"}, {"measurement": "Stability", "setting": "[4]", "value": "Stable"}, {"measurement": "selectivity ratio", "setting": "[5]", "value": 1.6}, {"measurement": "IC50", "setting": "[6]", "value": 990, "unit": "nM"}]}
{"smiles": "CCCCCCCCCCCCCCCCOCCCOP(=O)(O)CCCC(=O)N(C)O", "values": [{"measurement": "IC50", "setting": "[1]", "value": "> 64000", "unit": "nM"}, {"measurement": "selectivity ratio", "setting": "[2]", "value": 26}, {"measurement": "IC50", "setting": "[3]", "value": 950, "unit": "nM"}, {"measurement": "IC50", "setting": "[6]", "value": 24500, "unit": "nM"}]}
{"smiles": "CCCCCCCCCCCCOCCCOP(=O)(O)CCCC(=O)N(C)O", "values": [{"measurement": "IC50", "setting": "[1]", "value": "> 64000", "unit": "nM"}, {"measurement": "selectivity ratio", "setting": "[2]", "value": 68}, {"measurement": "IC50", "setting": "[3]", "value": 820, "unit": "nM"}, {"measurement": "IC50", "setting": "[6]", "value": 55900, "unit": "nM"}]}
{"smiles": "CC(=O)N(O)CCCP(=O)(O)O", "note": "[FR-900098]", "values": [{"measurement": "IC50", "setting": "[1]", "value": "> 64000", "unit": "nM"}]}
{"smiles": "CN(O)C(=O)CCCP(=O)(OCOC(=O)C(C)(C)C)OCOC(=O)C(C)(C)C", "values": [{"measurement": "IC50", "setting": "[1]", "value": 44300, "unit": "nM"}, {"measurement": "selectivity ratio", "setting": "[2]", "value": "> 88"}, {"measurement": "IC50", "setting": "[3]", "value": 730, "unit": "nM"}, {"measurement": "Stability", "setting": "[4]", "value": "Stable"}, {"measurement": "selectivity ratio", "setting": "[5]", "value": "> 1.4"}, {"measurement": "IC50", "setting": "[6]", "value": "> 64000", "unit": "nM"}]}
{"smiles": "CCCCCCCCC(=O)Oc1ccc(COP(=O)(CCCC(=O)N(C)O)OCc2ccc(OC(=O)CCCCCCCC)cc2)cc1", "values": [{"measurement": "IC50", "setting": "[1]", "value": 1760, "unit": "nM"}, {"measurement": "selectivity ratio", "setting": "[2]", "value": 42}, {"measurement": "IC50", "setting": "[3]", "value": 300, "unit": "nM"}, {"measurement": "Stability", "setting": "[4]", "value": "Stable"}, {"measurement": "selectivity ratio", "setting": "[5]", "value": 7.6}, {"measurement": "IC50", "setting": "[6]", "value": 12600, "unit": "nM"}]}
{"smiles": "CN(O)C(=O)CCCP(=O)(OCc1ccc(OC(=O)c2ccccc2)cc1)OCc1ccc(OC(=O)c2ccccc2)cc1", "values": [{"measurement": "IC50", "setting": "[1]", "value": 420, "unit": "nM"}, {"measurement": "selectivity ratio", "setting": "[2]", "value": 20}, {"measurement": "IC50", "setting": "[3]", "value": 30, "unit": "nM"}, {"measurement": "Stability", "setting": "[4]", "value": "Stable"}, {"measurement": "selectivity ratio", "setting": "[5]", "value": 1.5}, {"measurement": "IC50", "setting": "[6]", "value": 610, "unit": "nM"}]}
{"smiles": "CC(C)OC(=O)OCOP(=O)(CCCC(=O)N(C)O)OCOC(=O)OC(C)C", "values": [{"measurement": "IC50", "setting": "[1]", "value": "> 64000", "unit": "nM"}, {"measurement": "selectivity ratio", "setting": "[2]", "value": 743}, {"measurement": "IC50", "setting": "[3]", "value": 80, "unit": "nM"}, {"measurement": "Stability", "setting": "[4]", "value": "Stable"}, {"measurement": "IC50", "setting": "[6]", "value": 55700, "unit": "nM"}]}
